As usually defined, the pKi is the negative decadic logarithm of the Ki, by convention in mol/L.

pKi: −log10 of the molar value.

The assay concerns the target T1, Cholecystokinin (Sus scrofa, UniProt P01356).
T1 sequence (P01356 whole entry): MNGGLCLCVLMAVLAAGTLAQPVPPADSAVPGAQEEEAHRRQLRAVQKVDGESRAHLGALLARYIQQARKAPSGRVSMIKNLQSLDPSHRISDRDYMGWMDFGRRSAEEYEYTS

For the compound `Cc1cccc(NC(=O)N[C@@H]2N=C(N3CCCCCC3)c3ccccc3N(C)C2=O)c1` [L-738416], the pKi is 8.92.

For the origin of these results see BindingDB's records for PubMed 7969084 (Merck Sharp and Dohme Research Laboratories, 1994).
